Experiment [1] concerns the target T1, calcium channel (Cavia porcellus, UniProt O35505).
T1 construct: The taenia coli excised from a male guinea pig; from tissue; host or cells: guinea pig taenia coli (excised smooth muscle strip)
In words: Calcium channel blocking action (calcium-induced contraction of excised taenia coli). The settings on record: 0.5 h, test compound 10^-8 g/ml, 30 minutes incubation, guinea pig taenia coli, hydrochlorides (Example 34: fumarate). As for the experimental part:
The taenia coli excised from a male guinea pig weighing from 250 to 300 g was cut into a length of 6 to 7 mm and suspended in an organ bath filled with Tylord's solution (sodium chloride 97 mM, potassium chloride 40 mM, sodium hydrogen carbonate 11.9 mM, disodium hydrogen phosphate 0.4 mM, glucose 5.5 mM; pH 7.1). The bath solution contained no calcium ions and was aerated with a mixture of 95% oxygen and 5% carbon dioxide by volume. To this solution were added 10 and 30 mM solutions of calcium chloride at 30 minute intervals to obtain a final concentration of 0.4 mM. The tension which developed 1n the taenia coli was measured by an isometric transducer. The organ bath was then washed twice or more with Tylord's solution containing no calcium ions after which it was allowed to equilibrate for 30 minutes. After the muscle had stabilised, test compound dissolved in physiological saline was added to the bath to a final concentration of 10^-8 g/ml, and the bath was incubated for 30 minutes. 30 and 100 mM solutions of calcium chloride were again added to the bath, and the developed tension was measured. From the magnitude of the calcium-induced contraction before and after the test drug had been added the inhibitory rate was calculated using the following formula: [formula] where: Co=contraction induced by calcium ion before a test drug was added: and
Ct=contraction induced by calcium ion after the test drug had been added.
In addition to the compounds of the invention, we also carried out the same test with the following compounds of the prior art: (±)-diltiazem, […], (±)-8-chlorodiltiazem (8-Cl-diltiazem). (±)-8-methoxydiltiazem (8-MeO-diltiazem) and (±)-8-benzyloxydiltiazem (8-BzO-diltiazem).
In the Table, the compounds of the invention are identified by the number of the one of the foregoing Examples in which the compound was prepared. The prior art compounds are identified by the abbreviated generic names shown above in parentheses.
All of the compounds except for that of Example 34 were employed as the hydrochlorides; that of Example 34 was employed as the fumarate.

The test system of experiment [2] is SHR (spontaneously hypertensive rats). Description: Antihypertensive action in SHR. It is filed as in vivo. As to conditions: conscious male SHR, hydrochlorides, 24 hours. As for the experimental part: Male SHR (spontaneously hypertensive rats), 23 to 30 weeks old, were anesthesized with sodium pentobarbital 50 mg/kg intraperitoneal administration), and a polyethylene cannula was inserted through the left femoral artery into the abdominal aorta. The other end of the cannula was led out of the body and fixed at the back of the neck. One week after the operation, when the animal had recovered from the stress of the surgery, the other end of the cannula was connected to a blood pressure measuring device, which was constructed according to the directions of Laffan et al. [Laffan, P.J., Peterson A., Hitch S,W. and Jeunelot C., Cardiovascular Res. 6. 319-324 (1972)], but with slight modifications. The blood pressure and heart rate of the conscious and […] SHR were measured. After the blood pressure and the heart rate had stabilised for more than one hour, the test drug was administered by […]. After administration of the test sample, the blood pressure and the heart rate were measured every 15 minutes over a period of 24 hours. The maximum decrease in blood pressure and the half-time of the blood pressure lowering activity thus determined are shown in Table 6.
All of the test compounds were employed as the hydrochlorides.

The mark [3] stands for this setting: Rattus norvegicus, po, Dose 10 mg/kg, read-out: Maximum hypotension (%).

As a reminder, the inhibition is how much of the control response was suppressed.

T1 sequence (O35505 whole entry): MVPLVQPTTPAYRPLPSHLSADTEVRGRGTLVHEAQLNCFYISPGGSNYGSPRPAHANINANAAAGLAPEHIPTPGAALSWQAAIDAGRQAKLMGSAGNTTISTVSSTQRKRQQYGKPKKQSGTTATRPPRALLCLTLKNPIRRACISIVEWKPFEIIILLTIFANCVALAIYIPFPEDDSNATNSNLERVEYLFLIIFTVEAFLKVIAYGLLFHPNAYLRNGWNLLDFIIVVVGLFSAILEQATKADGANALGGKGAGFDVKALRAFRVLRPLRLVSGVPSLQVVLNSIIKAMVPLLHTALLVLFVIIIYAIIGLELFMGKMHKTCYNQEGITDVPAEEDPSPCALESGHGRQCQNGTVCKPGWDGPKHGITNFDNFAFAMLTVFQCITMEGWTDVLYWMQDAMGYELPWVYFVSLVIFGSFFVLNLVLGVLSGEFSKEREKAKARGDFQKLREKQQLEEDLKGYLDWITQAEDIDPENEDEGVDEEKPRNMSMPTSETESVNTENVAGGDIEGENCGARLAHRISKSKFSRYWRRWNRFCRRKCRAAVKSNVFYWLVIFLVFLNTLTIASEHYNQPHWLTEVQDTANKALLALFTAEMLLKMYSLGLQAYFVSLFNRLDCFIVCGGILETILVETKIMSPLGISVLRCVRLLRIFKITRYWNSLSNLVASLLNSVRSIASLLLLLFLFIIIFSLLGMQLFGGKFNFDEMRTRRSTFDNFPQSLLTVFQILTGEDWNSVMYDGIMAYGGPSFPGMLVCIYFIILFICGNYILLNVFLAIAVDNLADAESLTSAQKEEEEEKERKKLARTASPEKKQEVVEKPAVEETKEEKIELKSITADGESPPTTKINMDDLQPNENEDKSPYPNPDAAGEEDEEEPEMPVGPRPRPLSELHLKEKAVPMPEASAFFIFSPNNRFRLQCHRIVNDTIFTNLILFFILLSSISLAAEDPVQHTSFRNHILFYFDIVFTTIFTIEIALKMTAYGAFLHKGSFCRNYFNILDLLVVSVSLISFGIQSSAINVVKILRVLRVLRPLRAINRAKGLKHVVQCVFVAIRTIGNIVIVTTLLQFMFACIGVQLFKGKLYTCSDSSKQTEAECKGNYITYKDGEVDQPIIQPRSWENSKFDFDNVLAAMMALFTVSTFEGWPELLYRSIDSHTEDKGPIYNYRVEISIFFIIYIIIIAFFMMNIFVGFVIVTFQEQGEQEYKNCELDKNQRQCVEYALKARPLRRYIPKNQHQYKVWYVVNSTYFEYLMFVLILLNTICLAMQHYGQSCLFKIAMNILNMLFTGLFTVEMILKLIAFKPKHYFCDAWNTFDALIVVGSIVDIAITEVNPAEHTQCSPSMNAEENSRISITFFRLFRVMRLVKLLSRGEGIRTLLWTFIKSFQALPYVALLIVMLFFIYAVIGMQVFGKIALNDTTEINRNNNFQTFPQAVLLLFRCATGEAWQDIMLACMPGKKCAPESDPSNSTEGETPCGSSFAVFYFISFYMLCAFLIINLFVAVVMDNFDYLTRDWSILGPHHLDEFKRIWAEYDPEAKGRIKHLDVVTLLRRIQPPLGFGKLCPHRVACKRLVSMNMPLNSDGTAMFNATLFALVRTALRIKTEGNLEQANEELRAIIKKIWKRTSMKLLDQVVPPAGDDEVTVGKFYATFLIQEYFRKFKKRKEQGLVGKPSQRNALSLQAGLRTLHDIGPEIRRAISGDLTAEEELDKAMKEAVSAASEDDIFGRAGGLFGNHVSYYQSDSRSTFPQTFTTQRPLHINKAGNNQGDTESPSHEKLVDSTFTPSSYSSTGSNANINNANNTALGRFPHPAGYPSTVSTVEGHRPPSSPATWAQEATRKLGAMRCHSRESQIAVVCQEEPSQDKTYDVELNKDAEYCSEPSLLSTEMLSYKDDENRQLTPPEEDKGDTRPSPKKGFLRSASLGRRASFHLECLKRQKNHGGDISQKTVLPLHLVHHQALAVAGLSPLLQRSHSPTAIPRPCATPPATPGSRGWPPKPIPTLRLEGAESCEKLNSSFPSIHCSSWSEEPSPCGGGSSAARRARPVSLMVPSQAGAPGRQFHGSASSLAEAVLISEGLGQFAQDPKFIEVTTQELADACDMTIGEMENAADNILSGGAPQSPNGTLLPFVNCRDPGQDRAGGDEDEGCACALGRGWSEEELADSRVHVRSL

With `COc1ccc([C@@H]2Sc3ccccc3N(CCN(C)C)C(=O)[C@@H]2OC(C)=O)cc1` [(+)-diltiazem, (2, 3S)-cis-3-acetoxy-2,3-dihydro-5-(2-dimethylaminoethyl)-2-(4-methoxyphenyl)-1,5-benzothiazepin-4(5H)-one, reference compound], in experiment [1], the inhibition at 0.01 µg/mL worked out at 20%. The “Half-time of hypotension action” value in experiment [2] (Dose 10 mg/kg) was 3.3 h. Besides, the change in vivo at 10 mg/kg in experiment [2] (setting [3]) was -15%.

As for `COc1ccc([C@@H]2Sc3cc(Cc4ccc(F)cc4)ccc3N(CCN(C)C)C(=O)[C@@H]2OC(C)=O)cc1` [Example 38, (2S, 3S)-3-Acetoxy-5-(2-dimethylaminoethyl)-8-(4-fluoro-benzyl)-2,3-dihydro-2-(4-methoxyphenyl)-1,5-benzothiazepin-4(5H)-one], in experiment [1], the inhibition at 0.01 µg/mL worked out at 69%. Moreover, in experiment [2] (Dose 10 mg/kg), the “Half-time of hypotension action” value stood at 11.8 h. Further, the change in vivo at 10 mg/kg in experiment [2] (setting [3]) was -32%.

For `COc1ccc([C@@H]2Sc3cc(Oc4ccccc4)ccc3N(CCN(C)C)C(=O)[C@@H]2OC(C)=O)cc1` (racemic) [Example 2, (±)-Cis-3-acetoxy-5-(2-dimethylaminoethyl)-2,3-dihydro-2-(4-methoxyphenyl)-8-phenoxy-1,5-benzothiazepin-4(5H)-one], the inhibition at 0.01 µg/mL in experiment [1] came out at 58%. The “Half-time of hypotension action” value in experiment [2] (Dose 30 mg/kg) was determined as 13.9 h. Besides, the change in vivo at 30 mg/kg in experiment [2] (Rattus norvegicus, po, Dose 30 mg/kg, read-out: Maximum hypotension (%)) is -34%.

For `COc1ccc([C@@H]2Sc3cc(Oc4ccccc4)ccc3N(CCN(C)C)C(=O)[C@@H]2OC(C)=O)cc1F` [Example 16, (2S, 3S)-3-Acetoxy-5-(2-dimethylaminoethyl)-2-(3-fluoro-4-methoxyphenvl)-2,3-dihydro-8-phenoxy-1,5-benzothiazepin-4(5H)-one], the inhibition at 0.01 µg/mL in experiment [1] was found to be 80%. In addition, the “Half-time of hypotension action” value in experiment [2] (Dose 3 mg/kg) amounted to 9.4 h. Further, the change in vivo at 3 mg/kg in experiment [2] (Rattus norvegicus, po, Dose 3 mg/kg, read-out: Maximum hypotension (%)) was -21%.

The values above are taken from patent publication US5002942A, “1,5-benzothiazepine derivatives, their preparation and their use in the treatment of cardiovascular disorders” (Sankyo Company, Limited, priority 1988, dated 1991).
